Molecular target: Rv2623 (Mycobacterium tuberculosis, UniProt P9WFD7)
Sequence (P9WFD7 whole entry): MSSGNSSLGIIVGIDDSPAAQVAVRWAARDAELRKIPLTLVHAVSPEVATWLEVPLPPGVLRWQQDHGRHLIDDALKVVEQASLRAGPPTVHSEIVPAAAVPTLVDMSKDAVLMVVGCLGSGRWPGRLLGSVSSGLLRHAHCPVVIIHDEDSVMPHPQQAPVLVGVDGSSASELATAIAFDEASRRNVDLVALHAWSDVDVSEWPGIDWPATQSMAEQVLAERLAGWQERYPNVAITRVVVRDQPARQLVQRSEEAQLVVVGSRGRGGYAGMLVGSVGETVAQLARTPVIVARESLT

Nc1ncnc2c1ncn2[C@@H]1O[C@H](COP(=O)(O)OP(=O)(O)O)[C@@H](O)[C@H]1O [ADP]
HPLC of nucleotide extracted from purified protein by boiling: His6-Rv2623 co-purifies with both ATP and ADP

— PMC2682197, “Mycobacterium tuberculosis Universal Stress Protein Rv2623 Regulates Bacillary Growth by ATP-Binding: Requirement for Establishing Chronic Persistent Infection” (PLoS Pathogens, 2009)
